# According to patent US11136325B2, “Pyrrolopyrimidine and pyrrolopyridine derivatives” (GALAPAGOS NV, priority 2017, dated 2021):
# Key:
# ASK2 [1] = biological target: T1, ASK2 (Homo sapiens (Human), UniProt O95382); assay: ASK2 biochemical assay (IMAP technology); conditions: 25 nM hASK2
# Excerpt: IMAP® technology provides a homogeneous assay applicable to a wide variety of kinases, phosphatases, and phosphodiesterases without regard for substrate peptide sequence. The assay is a simple mix-and-read procedure allowing accurate determination of enzyme activity. Based on the specific, high-affinity interaction of phospho groups with trivalent metal-containing nanoparticles (beads), IMAP is a generic, non-antibody-based platform to assess kinase, phosphatase, and phosphodiesterase activity. An enzyme reaction is performed using fluorescently labeled substrate. Addition of the IMAP Binding System stops the enzyme reaction and initiates binding of the beads to phosphorylated substrates. Binding of the substrate to the beads, which correlates to enzyme activity, can be detected using either FP or TR-FRET as a readout.
# KIT IMAP FP, Cat. No. R8127; Reaction Buffer-Tween (5× conc.), Molecular Devices, Cat. No. R7436; Diluted 1:5 with H2O and containing DTT (1 mM from 1M stock); Progressive Binding Buffer (PBB) A (5× conc.), Molecular Devices, Cat. No. R7282; Progressive Binding Reagent (PB Reagent), Molecular Devices, Cat. No. R7284; Enzyme Solution (containing 2× Ask1 in Reaction buffer); Substrate Solution (containing 2× peptide substrate in Reaction buffer, and 2×150 μM ATP in Reaction buffer); Bead Buffer (Progressive Binding Buffer A diluted 1:5 with H2O); Bead Solution (Bead Buffer containing 1:200 Progressive Binding Reagent (2×))
# 100 nL of test compound in 100% DMSO was added to 384-well plates. […] The plates were then incubated for 2 h at room temperature after which time the plates were read on a Perkin Elmer EnVision plate reader.
# Calculation of IC50 data, curves and QC analysis was made by using Excel tools and GraphPadPrism software, v. […] Calculated results: Calc 1: mP value for FP measurement=1000*(S−G*P)/(S+G*P) where S=<detector 2 or FP-BodipyTAMRA_Ex531-Em579-optimized(1) channel 2>P=<detector 1 or FP-BodipyTAMRA_Ex531-Em579-optimized(1) channel 1>G=G-factor. […] Top constrain is used only if top values are not correctly calculated. […]
# ASK2 [2] = biological target: T1, ASK2; assay: ASK2 biochemical assay (AlphaScreen technology, MKK7 phosphorylation); conditions: 150 μM ATP, 400 nM MKK7, 2 nM ASK2
# Excerpt: ASK1 and ASK2 biochemical activities were also quantified using AlphaScreen technology which measures the degree of phosphorylation of a protein substrate (MKK7). AlphaScreen technology is based on the binding of a substrate to two types of beads, acceptor and donor. Binding to one bead is through the tag of the substrate protein. Binding of the second bead is through phosphospecific binding of antibody to the phosphosite of the substrate. This forms a sandwich, with the acceptor and donor beads in close proximity. When the donor beads are excited by light in the 680 nm range, a singlet oxygen is released and causes emission of light from the acceptor in the 620 nm range which can be detected using a suitable plate reader.
# The phosphorylation site on MKK7 (Ser271/Thr275) is then recognised by a phosphospecific antibody. The phosphospecific antibody is bound to the AlphaScreen acceptor beads through a Protein-A interaction. Phosphorylation of MKK7 by ASK1 or ASK2 subsequently facilitates the bringing together of the donor and acceptor beads into close proximity whereupon the transfer of the singlet oxygen leads to the generation of the AlphaScreen signal.
# The assay was configured to run using the following conditions (final concentrations): 150 μM ATP; 400 nM MKK7; 0.8 nM ASK1 and 2 nM ASK2.
# 100 nL of test compound (starting concentration 6 μM, 11 concentrations with 3 fold serial dilutions) in 100% DMSO was added to low volume 384 well plates. 2.5 μl of ASK1 or ASK2 was added to each well except in the control wells to which 2.5 μl buffer was added. 2.5 μl of MKK7 solution was added to all wells. The plate was incubated for 60 minutes at room temperature. Protein-A acceptor beads and phospho-specific antibody were incubated for 30 minutes and then 2.5 μl of Protein-A acceptor beads/phospho-specific antibody mix (2.5 μg/ml acceptor beads final concentration and 1/800 antibody final dilution) was added to each well. […] The plate was incubated for a further 60 minutes at room temperature, following which the plate was read on a Perkin Elmer Enspire plate reader. […]
# T1 sequence (O95382 whole entry): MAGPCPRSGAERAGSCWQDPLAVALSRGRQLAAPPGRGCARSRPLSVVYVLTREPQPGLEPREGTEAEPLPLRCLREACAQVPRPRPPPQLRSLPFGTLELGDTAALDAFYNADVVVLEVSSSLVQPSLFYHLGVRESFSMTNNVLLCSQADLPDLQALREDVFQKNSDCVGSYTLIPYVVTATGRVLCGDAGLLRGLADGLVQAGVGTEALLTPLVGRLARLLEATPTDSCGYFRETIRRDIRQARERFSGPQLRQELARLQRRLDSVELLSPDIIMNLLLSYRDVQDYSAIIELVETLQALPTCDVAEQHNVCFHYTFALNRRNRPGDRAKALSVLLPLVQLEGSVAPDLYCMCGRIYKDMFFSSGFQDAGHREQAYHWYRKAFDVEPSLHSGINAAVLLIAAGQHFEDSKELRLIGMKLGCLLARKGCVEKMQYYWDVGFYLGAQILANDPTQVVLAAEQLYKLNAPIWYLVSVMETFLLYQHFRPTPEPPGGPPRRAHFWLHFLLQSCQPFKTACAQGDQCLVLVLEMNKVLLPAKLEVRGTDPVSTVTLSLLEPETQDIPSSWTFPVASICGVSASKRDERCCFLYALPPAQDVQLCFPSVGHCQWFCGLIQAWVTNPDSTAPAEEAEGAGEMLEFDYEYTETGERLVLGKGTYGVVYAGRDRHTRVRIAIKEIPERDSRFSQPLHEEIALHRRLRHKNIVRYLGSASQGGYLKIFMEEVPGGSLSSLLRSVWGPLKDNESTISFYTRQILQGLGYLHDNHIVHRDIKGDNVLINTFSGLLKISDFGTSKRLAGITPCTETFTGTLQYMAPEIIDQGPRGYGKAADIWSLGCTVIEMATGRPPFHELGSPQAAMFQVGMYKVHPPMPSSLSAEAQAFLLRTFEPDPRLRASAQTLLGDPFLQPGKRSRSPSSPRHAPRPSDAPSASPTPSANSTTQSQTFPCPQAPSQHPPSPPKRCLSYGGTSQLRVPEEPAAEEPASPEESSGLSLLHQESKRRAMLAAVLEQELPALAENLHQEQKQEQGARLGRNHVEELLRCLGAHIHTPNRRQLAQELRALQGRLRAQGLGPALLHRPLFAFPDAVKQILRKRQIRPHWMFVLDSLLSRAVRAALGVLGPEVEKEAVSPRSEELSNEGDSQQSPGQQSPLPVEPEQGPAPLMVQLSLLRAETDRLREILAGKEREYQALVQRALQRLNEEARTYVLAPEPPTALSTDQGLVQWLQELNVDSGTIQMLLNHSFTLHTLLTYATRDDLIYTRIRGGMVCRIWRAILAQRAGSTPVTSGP
Inhibition (pIC50) ASK2 (ASK2 [1]),Inhibition (pIC50) ASK2 (ASK2 [2]),Structure (SMILES)
8.08,–,"Cc1cnc(N)cc1C(=O)NC1CCN(c2ncnc3[nH]cc(C)c23)CC1 [Compound 2, 2-amino-5-methyl-N-[1-(5-methyl-7H-pyrrolo[2,3-d]pyrimidin-4-yl)-4-piperidyl]pyridine-4-carboxamide]"
8.19,8.2,"Nc1cc(C(=O)NC2CCN(c3ncnc4[nH]cc(Cl)c34)CC2)ccn1 [Compound 4, 2-amino-N-[1-(5-chloro-7H-pyrrolo[2,3-d]pyrimidin-4-yl)-4-piperidyl]pyridine-4-carboxamide]"
–,7.8,"Cc1c[nH]c2ncnc(N3CCC(NC(=O)c4cc(N)ncc4Cl)CC3)c12 [Compound 3, 2-amino-5-chloro-N-[1-(5-methyl-7H-pyrrolo[2,3-d]pyrimidin-4-yl)-4-piperidyl]-pyridine-4-carboxamide]"
7.96,7.71,"Cc1c[nH]c2ncnc(N3CCC(NC(=O)c4cc(N)ncc4F)CC3)c12 [Compound 1, 2-amino-5-fluoro-N-[1-(5-methyl-7H-pyrrolo[2,3-d]pyrimidin-4-yl)-4-piperidyl]pyridine-4-carboxamide]"
